The values that follow come from PMC7300217, “Surfactin Like Broad Spectrum Antimicrobial Lipopeptide Co-produced With Sublancin From Bacillus subtilis Strain A52: Dual Reservoir of Bioactives” (Frontiers in Microbiology, 2020).

What is called MIC is the lowest concentration that inhibits growth of the organism. A high value points to a less susceptible organism.

≈ marks a conversion by molar mass, not a printed value.

For series [1], the system named is C. albicans MTCC 183. Put plainly: MIC, microtiter plate dilution assay. It is filed as cell-based, Candida albicans. The settings on record: Candida albicans, MTCC183; 5 × 10^5 CFU/ml, 37°C, OD600 after 48 h, triplicate. On the procedure: (§1) The antimicrobial activity was tested by well diffusion assay as mentioned earlier ([Singh et al., 2014]). Strain A52 was grown for 24 h in 500 ml of nutrient broth (NB, Hi-media, India) using 1000 ml flask and subsequently cells were removed by centrifugation (10,000 rpm for 15 min at 4°C). Supernatant was filtered through 0.22 μm filter (Millipore, United States) to obtain cell-free fermented broth (CFB) that was used for antimicrobial assay (50 μl) against various indicator strains and the activity was measured as diameter of inhibition zone. Test strains used were Staphylococcus aureus (MTCC 1430), Bacillus subtilis (MTCC 121), B. firmus (MTCC 488), B. licheniformis (MTCC 429), B. thuringiensis (MTCC 1953), Escherichia coli (MTCC 1610), Micrococcus luteus (MTCC 106), Steptococcus pyrogens (MTCC 1928), S. anginosus (MTCC 1929), S. oralis (MTCC 2696), S. mutans (MTCC 497), Candida albicans (MTCC 1637), C. albicans (MTCC 183), C. albicans (MTCC 227), C. tropicalis (MTCC 184), C. glabrata (MTCC 3019), C. haemulonii (MTCC 2766), and C. inconsplicue (MTCC 1074). The phytopathogenic fungi employed in this study were Alternaria brassicicola (MTCC 2102), Colletotrichum acutatum (MTCC 1037), and Fusarium moniliforme (MTCC 158). Clinical isolates of Candida were provided by National Culture Collection of Pathogenic Fungi (NCCPF), PGIMER, Chandigarh, India.
(§2) The minimum inhibitory concentration (MIC) of HPLC purified peptides was evaluated by using microtiter plate dilution assay. The peptide concentration was estimated using BCA protein assay (Thermo Fisher Scientific, United States) method as described by manufacturer. Actively growing test strains (5 × 10^5 CFU/ml) were inoculated in a 96-well plate with different concentrations of the peptides and plates were incubated for 24–48 h at 37°C (final volume in each well is 200 μl). OD was measured at 600 nm after 24 and 48 h for bacteria and yeast, respectively, using ELISA microplate reader (Thermo, United States). MIC against phytopathogenic fungi was determined using 96-well microtiter plate assay ([Kaur et al., 2016]). In 96-well microplates, 100 μl of fungal spore suspension (1 × 10^5 spores/ml) prepared in potato dextrose broth (PDB, Hi-media, India) was mixed with100 μl of fresh PDB containing different concentrations of lipopeptide. Control well contained 100 μl of fungal spore suspension and 100 μl of only medium. The microplates were incubated at 25°C and readings were recorded at 600 nm after 48 h. The lowest concentration showing no growth was considered as MIC. Each test was done in triplicate and optical density (OD600) of peptide treated wells were compared with uninoculated wells (blank medium control).

Series [2] deals with F. moniliforme MTCC 158. Put plainly: MIC against phytopathogenic fungi, 96-well microtiter plate assay. It is filed as cell-based, Fusarium moniliforme. Particulars: Fusarium verticillioides, MTCC158; 1 × 10^5 spores/ml in PDB, 25°C, OD600 after 48 h, triplicate. On the procedure:
as §1
The minimum inhibitory concentration (MIC) of HPLC purified peptides was evaluated by using microtiter plate dilution assay. The peptide concentration was estimated using BCA protein assay (Thermo Fisher Scientific, United States) method as described by manufacturer. […] OD was measured at 600 nm after 24 and 48 h for bacteria and yeast, respectively, using ELISA microplate reader (Thermo, United States). MIC against phytopathogenic fungi was determined using 96-well microtiter plate assay ([Kaur et al., 2016]). […] The microplates were incubated at 25°C and readings were recorded at 600 nm after 48 h. […]

Series [3] concerns C. rugos 470141 (clinical isolate). Put plainly: MIC, microtiter plate dilution assay. Type of series: cell-based. Particulars: 5 × 10^5 CFU/ml, 37°C, OD600 after 48 h, triplicate. On the procedure: as §1, §2
Series [4] concerns C. krusei 440009 (clinical isolate). Put plainly: MIC, microtiter plate dilution assay. Type of series: cell-based. Particulars: Pichia kudriavzevii, 5 × 10^5 CFU/ml, 37°C, OD600 after 48 h, triplicate. The method, then:
as §1, §2

The test system of series [5] is C. inconsplicue MTCC 1074. As to the kind of experiment: MIC, microtiter plate dilution assay. Type of series: cell-based. Particulars: 5 × 10^5 CFU/ml, 37°C, OD600 after 48 h, triplicate. The method, then: as §1, §2
The subject of series [6] is C. parasilosis 450030 (clinical isolate). Put plainly: MIC, microtiter plate dilution assay. The settings on record: 5 × 10^5 CFU/ml, 37°C, OD600 after 48 h, triplicate. Type of series: cell-based. On the procedure:
as §1, §2

For series [7], the system named is skin of BALB/c female mice. As to the kind of experiment: Skin irritation study (Draize test). It is filed as in vivo. Particulars: topical, about 1 cm^2 hairless dorsal skin, score 0 none, 1 slight, 2 moderate, 3 severe, mean. On the procedure: Skin irritation potential of lipopetide based emulgel formulation was evaluated by carrying out skin irritancy test using 8 weeks old BALB/c female mice ([Draize et al., 1944]). Mice dorsal surface hair was removed without damaging the skin surface about 24 h prior to the experiment. Mice were divided into three groups (n = 3): […] Group II: plain gel (negative control); and Group III: […] emulgel. The formulation was topically applied to the hairless skin area (approximately 1 cm^2) and observations were recorded at 24, 48, and 72 h.

As to `OC(Cn1cncn1)(Cn1cncn1)c1ccc(F)cc1F` [Fluconazole], the MIC in series [1] came out at 20 µg/mL (≈ 65.3 µM); in series [2] it was 10 µg/mL (≈ 32.7 µM); in series [3] it was 5 µg/mL (≈ 16.3 µM); in series [4] it was 1 µg/mL (≈ 3.27 µM); in series [5] it was 50 µg/mL (≈ 163 µM); in series [6], 10 µg/mL (≈ 32.7 µM).

In the case of `CCCCCCCCCCCCOS(=O)(=O)[O-].[Na+]` [Positive Control, sodium lauryl sulfate], in series [7], the “Erythema score (n=3), 0 h” value came to 0; the “Erythema score (n=3), 24h” value is 3; the “Erythema score (n=3), 48h” value is given as 3; the “Erythema score (n=3), 72h” value amounted to 3.
